For ten compounds, GI50 and TGI results are on record in PubChem BioAssay (NCI).

Common to all, as to experiment: DTP human tumour cell line panel, 48 h
Assay [1] concerns MOLT-4 leukemia.
In assay [2] the test system is PC-3 prostate.
In assay [3] the test system is SK-OV-3 ovarian.
Assay [4] relates to DU-145 prostate.
The subject of assay [5] is HS 578T breast.
Assay [6] deals with CAKI-1 renal.
In assay [7] the test system is HCC-2998 colon.
The subject of assay [8] is HOP-92 NSCLC.
The subject of assay [9] is 786-0 renal.
Assay [10] has as its system SK-MEL-2 melanoma.

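Protocol summary: plate cells (96-well), add compound at 5 concentrations, incubate 48 h, interpolate endpoints linearly. GI50 is the concentration that inhibits growth by half. At the TGI there is no net growth.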

As to `Oc1c(CN2CCCC2)cc(COCc2ccccc2)c2cccnc12`, the GI50 was 2.96 µM in [1]; 2.73 µM in assay [2]; 2.02 µM in assay [3]; 3.4 µM in [4]; 8.71 µM in assay [5]; 0.26 µM in [6]. Also, the GI50 is 3.72 µM in [7], 7.15 µM in assay [8], 2.22 µM in assay [9] and 4.68 µM in [10]. The TGI in assay [1] was found to be 11.4 µM; in [2], 23.3 µM; in assay [3], 9.27 µM; in assay [4], 16.8 µM; in assay [5], 58.7 µM; in [6] it was 14.2 µM. Moreover, the TGI in assay [7] amounted to 16.5 µM; in assay [8], 26.6 µM; in assay [9], 8.52 µM; in assay [10], 20.1 µM.
`C=C(C)C1/C=C(/C(C)C)CC[C@]2(C)O[C@@H]2CC[C@H](C)CC1=O` (stereo not given in full): the GI50 in assay [1] was over 100 µM; in assay [2] it was 32.4 µM; in assay [3] it was over 100 µM; in assay [4], 49.6 µM; in assay [5], 31.7 µM; in assay [6], 35.3 µM. The GI50 was 99.9 µM in assay [7], 99.5 µM in assay [8], 32.4 µM in assay [9] and over 100 µM in [10]. Further, the TGI in assay [1], in assay [2], in assay [3], in assay [4], in [5] and in assay [6] was over 100 µM each time. Besides, the TGI in assay [7], in assay [8], in [9] and in assay [10] was over 100 µM throughout.
As to `O=C1/C(=C/c2cccs2)CCC/C1=C\c1cccs1`, the GI50 in assay [1] is over 100 µM; in assay [2], 37.7 µM; in assay [3] it was 26.5 µM; in assay [4], 46.6 µM; in assay [5], 29.2 µM; in assay [6], 55.8 µM. Also, the GI50 is over 100 µM in assay [7], 10.6 µM in assay [8], 49.8 µM in assay [9] and 47.8 µM in assay [10]. The TGI was over 100 µM in assay [1]; over 100 µM in assay [2]; 74.2 µM in assay [3]; over 100 µM in assay [4]; over 100 µM in assay [5]; over 100 µM in assay [6]. Further, the TGI in assay [7] is over 100 µM; in assay [8], 57.8 µM; in assay [9] it was over 100 µM; in [10], over 100 µM.
As for `COc1ccccc1-n1c(SCc2cc(OC)c(OC)c(OC)c2)nc2ccc(Cl)cc2c1=O`, the GI50 was 3.05 µM in assay [1]; 2.65 µM in assay [2]; 7.76 µM in assay [3]; 9.12 µM in [4]; 5.81 µM in [5]; 2.8 µM in [6]. Moreover, the GI50 was 7.8 µM in [7], 2.78 µM in assay [8], 4.46 µM in assay [9] and 4.88 µM in [10]. Further, the TGI in assay [1], in [2], in [3], in assay [4], in assay [5] and in [6] was over 100 µM each time. Also, the TGI in assay [7] is over 100 µM; in assay [8], 99.6 µM; in assay [9] it was over 100 µM; in assay [10], over 100 µM.
In the case of `CC(=O)N1CC(F)(F)c2c(Sc3ncc(N4CCC5(CC4)COC[C@H]5N)nc3N)cccc21`, the GI50 in assay [1] was 21.1 µM; in assay [2], 29.8 µM; in [3], 3.75 µM; in assay [4] it was 25.7 µM; in [5], 14.6 µM; in assay [6], 3.68 µM. The GI50 in assay [7] was 28.3 µM; in assay [8] it was 0.259 µM; in assay [9], 10.8 µM; in assay [10], 24.7 µM. In addition, the TGI is 67.7 µM in assay [1]; over 100 µM in assay [2]; over 100 µM in assay [3]; over 100 µM in assay [4]; 59.1 µM in assay [5]; 30 µM in [6]. In addition, the concentration for total growth inhibition (TGI) in assay [7] was 94.1 µM; in [8], 3.64 µM; in [9] it was 27.1 µM; in assay [10], over 100 µM.
In the case of `O=C(/C=C\c1ccnc2ccccc12)c1ccc([N+](=O)[O-])cc1`, the GI50 in [1] is 4.21 µM; in assay [2], 8.62 µM; in [3], over 100 µM; in [4] it was 43.1 µM; in [5], 27.3 µM; in assay [6] it was 13.2 µM. In addition, the GI50 in assay [7] was 6.05 µM; in assay [8], 3.99 µM; in [9] it was 16.9 µM; in [10] it was over 100 µM. Moreover, the TGI in [1] was over 83 µM; in [2], 48.2 µM; in assay [3], over 100 µM; in assay [4], over 100 µM; in [5] it was over 96 µM; in [6] it was over 100 µM. In addition, the TGI in assay [7] is 29.9 µM; in assay [8], over 65.3 µM; in [9] it was over 89 µM; in [10], over 100 µM.
`O=C(/C=C/c1ccco1)Nc1ncc(Cc2ccc(F)cc2)s1`: the GI50 is 0.0825 µM in assay [1]; 0.0571 µM in [2]; 0.0455 µM in [3]; 0.0901 µM in [4]; 0.124 µM in assay [5]; 0.0525 µM in [6]. Also, the GI50 in assay [7] is 0.224 µM; in [8], 8.56 µM; in assay [9], 0.157 µM; in assay [10], 0.115 µM. In addition, the TGI in assay [1], in [2], in [3], in assay [4], in assay [5] and in [6] was over 100 µM in each case. In addition, the TGI in assay [7], in assay [8], in [9] and in assay [10] was over 100 µM throughout.
For `CC[C@H](C)[C@H](NC(=O)C12C3C4C1C1C2C3C41NC(C)=O)C(=O)N(C)[C@H](C[C@@H](OC(C)=O)c1nc(C(=O)N[C@@H](Cc2ccccc2)C[C@H](C)C(=O)OC)cs1)C(C)C` (stereo not given in full), the GI50 was 0.588 µM in [1]; 0.582 µM in assay [2]; 0.703 µM in [3]; 0.469 µM in assay [4]; 0.468 µM in assay [5]; over 10.8 µM in assay [6]. Besides, the GI50 in [7] is 0.279 µM; in assay [8] it was over 14.3 µM; in [9], 0.902 µM; in assay [10] it was 0.162 µM. Also, the TGI is over 14.3 µM in assay [1]; over 14.3 µM in assay [2]; over 14.3 µM in [3]; over 9.88 µM in assay [4]; over 14.3 µM in assay [5]; over 14.3 µM in assay [6]. Further, the TGI in [7], in assay [8], in assay [9] and in [10] was over 14.3 µM throughout.
As for `C[C@H]1[C@@H](OCC(CO[C@H]2O[C@@H]3O[C@@]4(C)CC[C@H]5[C@H](C)CC[C@@H]([C@H]2C)[C@@]35OO4)=NOCC(=O)O)OC2O[C@@]3(C)CC[C@H]4[C@H](C)CC[C@@H]1[C@@]24OO3` (stereo not given in full), the GI50 was under 0.01 µM in assay [1]; under 0.01 µM in [2]; 0.786 µM in assay [3]; 10.8 µM in assay [4]; 0.719 µM in assay [5]; 0.117 µM in [6]. Moreover, the GI50 in assay [7] was 1.28 µM; in [8], under 0.01 µM; in assay [9], 0.112 µM; in assay [10], 0.346 µM. The TGI was 8.61 µM in assay [1]; 13.5 µM in [2]; 19.6 µM in assay [3]; 28.1 µM in assay [4]; 22.4 µM in assay [5]; 3.12 µM in assay [6]. Besides, the TGI in [7] stood at 20.8 µM; in assay [8], 0.0621 µM; in assay [9], 23 µM; in assay [10], 14.8 µM.
In the case of `CCSC1=CC(=O)c2ccccc2C1=O`, the GI50 in assay [1] was 0.744 µM; in [2] it was 5.84 µM; in assay [3] it was 18.1 µM; in [4] it was 14.4 µM; in assay [5], 13.8 µM; in [6] it was 1.96 µM. Besides, the GI50 in assay [7] was 17 µM; in [8], 1.32 µM; in [9], 9.25 µM; in assay [10], 6.48 µM. In addition, the TGI was 2.39 µM in assay [1]; 18.5 µM in assay [2]; 32 µM in [3]; 27.8 µM in assay [4]; over 69.3 µM in assay [5]; 5.5 µM in assay [6]. The TGI was 31.8 µM in assay [7], 2.66 µM in assay [8], 22.3 µM in assay [9] and 15.9 µM in assay [10].
